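Dose response: 5 concentrations. Exposure: 48 h. Format: 96-well plates. Endpoint: linear interpolation; highest concentration if not reached. At the TGI there is no net growth.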
How the values were obtained:
Assay in all cases: DTP human tumour cell line panel, 48 h
786-0 renal = system: 786-0 renal
A498 renal = system: A498 renal
A549 NSCLC = system: A549 NSCLC
ACHN renal = system: ACHN renal
BT-549 breast = system: BT-549 breast
CAKI-1 renal = system: CAKI-1 renal
CCRF-CEM leukemia = system: CCRF-CEM leukemia
COLO 205 colon = system: COLO 205 colon
DU-145 prostate = system: DU-145 prostate
EKVX NSCLC = system: EKVX NSCLC
HCC-2998 colon = system: HCC-2998 colon
HCT-116 colon = system: HCT-116 colon
HCT-15 colon = system: HCT-15 colon
HL-60(TB) leukemia = system: HL-60(TB) leukemia
HOP-62 NSCLC = system: HOP-62 NSCLC
HOP-92 NSCLC = system: HOP-92 NSCLC
HS 578T breast = system: HS 578T breast
HT29 colon = system: HT29 colon
IGROV1 ovarian = system: IGROV1 ovarian
K-562 leukemia = system: K-562 leukemia
KM12 colon = system: KM12 colon
LOX IMVI melanoma = system: LOX IMVI melanoma
M14 melanoma = system: M14 melanoma
MALME-3M melanoma = system: MALME-3M melanoma
MCF7 breast = system: MCF7 breast
MDA-MB-231 breast = system: MDA-MB-231 breast
MDA-MB-435 = system: MDA-MB-435
MDA-N = system: MDA-N
MOLT-4 leukemia = system: MOLT-4 leukemia
NCI-H23 lung = system: NCI-H23 lung
NCI-H460 lung = system: NCI-H460 lung
NCI-H522 lung = system: NCI-H522 lung
NCI/ADR-RES ovarian = system: NCI/ADR-RES ovarian
OVCAR-3 ovarian = system: OVCAR-3 ovarian
OVCAR-4 ovarian = system: OVCAR-4 ovarian
OVCAR-5 ovarian = system: OVCAR-5 ovarian
OVCAR-8 ovarian = system: OVCAR-8 ovarian
PC-3 prostate = system: PC-3 prostate
RPMI-8226 leukemia = system: RPMI-8226 leukemia
RXF 393 renal = system: RXF 393 renal
SF-268 CNS = system: SF-268 CNS
SF-295 CNS = system: SF-295 CNS
SF-539 CNS = system: SF-539 CNS
SK-MEL-2 melanoma = system: SK-MEL-2 melanoma
SK-MEL-28 melanoma = system: SK-MEL-28 melanoma
SK-MEL-5 melanoma = system: SK-MEL-5 melanoma
SK-OV-3 ovarian = system: SK-OV-3 ovarian
SN12C renal = system: SN12C renal
SNB-19 CNS = system: SNB-19 CNS
SW-620 colon = system: SW-620 colon
T-47D breast = system: T-47D breast
TK-10 renal = system: TK-10 renal
U251 CNS = system: U251 CNS
UACC-257 melanoma = system: UACC-257 melanoma
UACC-62 melanoma = system: UACC-62 melanoma
UO-31 renal = system: UO-31 renal
NCI-H226 lung = system: NCI-H226 lung
SNB-75 CNS = system: SNB-75 CNS

Oc1ccc(Br)cc1C=NC1CCCCC1
TGI (786-0 renal): > 100 µM | TGI (A498 renal): > 100 µM | TGI (A549 NSCLC): > 100 µM | TGI (ACHN renal): > 100 µM | TGI (BT-549 breast): > 100 µM | TGI (CAKI-1 renal): > 100 µM | TGI (CCRF-CEM leukemia): > 100 µM | TGI (COLO 205 colon): > 100 µM | TGI (DU-145 prostate): > 100 µM | TGI (EKVX NSCLC): > 100 µM | TGI (HCC-2998 colon): > 100 µM | TGI (HCT-116 colon): 48.8 µM | TGI (HCT-15 colon): > 100 µM | TGI (HL-60(TB) leukemia): 44.5 µM | TGI (HOP-62 NSCLC): > 100 µM | TGI (HOP-92 NSCLC): > 100 µM | TGI (HS 578T breast): > 100 µM | TGI (HT29 colon): > 100 µM | TGI (IGROV1 ovarian): > 100 µM | TGI (K-562 leukemia): > 100 µM | TGI (KM12 colon): > 100 µM | TGI (LOX IMVI melanoma): > 100 µM | TGI (M14 melanoma): > 100 µM | TGI (MALME-3M melanoma): > 100 µM | TGI (MCF7 breast): > 100 µM | TGI (MDA-MB-231 breast): > 100 µM | TGI (MDA-MB-435): > 100 µM | TGI (MDA-N): > 100 µM | TGI (MOLT-4 leukemia): > 100 µM | TGI (NCI-H23 lung): > 100 µM | TGI (NCI-H460 lung): > 100 µM | TGI (NCI-H522 lung): > 100 µM | TGI (NCI/ADR-RES ovarian): > 100 µM | TGI (OVCAR-3 ovarian): > 100 µM | TGI (OVCAR-4 ovarian): > 100 µM | TGI (OVCAR-5 ovarian): > 100 µM | TGI (OVCAR-8 ovarian): > 100 µM | TGI (PC-3 prostate): > 100 µM | TGI (RPMI-8226 leukemia): > 100 µM | TGI (RXF 393 renal): > 100 µM | TGI (SF-268 CNS): > 100 µM | TGI (SF-295 CNS): > 100 µM | TGI (SF-539 CNS): > 100 µM | TGI (SK-MEL-2 melanoma): 74.2 µM | TGI (SK-MEL-28 melanoma): > 100 µM | TGI (SK-MEL-5 melanoma): 43.8 µM | TGI (SK-OV-3 ovarian): > 100 µM | TGI (SN12C renal): 19.5 µM | TGI (SNB-19 CNS): > 100 µM | TGI (SW-620 colon): > 100 µM | TGI (T-47D breast): 75.5 µM | TGI (TK-10 renal): > 100 µM | TGI (U251 CNS): > 100 µM | TGI (UACC-257 melanoma): > 100 µM | TGI (UACC-62 melanoma): > 100 µM | TGI (UO-31 renal): > 100 µM

COC(=O)[C@H](Cc1ccccc1)NC(=O)OCC1OC(n2cc(C)c(=O)[nH]c2=O)CC1N=[N+]=[N-] (stereo partly specified)
TGI (786-0 renal): > 100 µM | TGI (A549 NSCLC): > 100 µM | TGI (ACHN renal): > 100 µM | TGI (BT-549 breast): > 100 µM | TGI (CAKI-1 renal): > 100 µM | TGI (CCRF-CEM leukemia): > 100 µM | TGI (COLO 205 colon): > 100 µM | TGI (DU-145 prostate): > 100 µM | TGI (EKVX NSCLC): > 100 µM | TGI (HCC-2998 colon): > 100 µM | TGI (HCT-116 colon): > 100 µM | TGI (HCT-15 colon): > 100 µM | TGI (HL-60(TB) leukemia): > 100 µM | TGI (HOP-62 NSCLC): > 100 µM | TGI (HOP-92 NSCLC): > 100 µM | TGI (HS 578T breast): > 100 µM | TGI (HT29 colon): > 100 µM | TGI (IGROV1 ovarian): > 100 µM | TGI (K-562 leukemia): > 100 µM | TGI (KM12 colon): > 100 µM | TGI (LOX IMVI melanoma): > 100 µM | TGI (M14 melanoma): > 100 µM | TGI (MALME-3M melanoma): > 100 µM | TGI (MCF7 breast): > 100 µM | TGI (MDA-MB-231 breast): > 100 µM | TGI (MDA-MB-435): > 100 µM | TGI (MDA-N): > 100 µM | TGI (MOLT-4 leukemia): > 100 µM | TGI (NCI-H226 lung): > 100 µM | TGI (NCI-H23 lung): > 100 µM | TGI (NCI-H460 lung): > 100 µM | TGI (NCI-H522 lung): > 100 µM | TGI (NCI/ADR-RES ovarian): > 100 µM | TGI (OVCAR-3 ovarian): > 100 µM | TGI (OVCAR-4 ovarian): > 100 µM | TGI (OVCAR-5 ovarian): > 100 µM | TGI (OVCAR-8 ovarian): > 100 µM | TGI (PC-3 prostate): > 100 µM | TGI (RPMI-8226 leukemia): > 100 µM | TGI (RXF 393 renal): > 100 µM | TGI (SF-268 CNS): > 100 µM | TGI (SF-295 CNS): > 100 µM | TGI (SK-MEL-2 melanoma): > 100 µM | TGI (SK-MEL-5 melanoma): > 100 µM | TGI (SK-OV-3 ovarian): > 100 µM | TGI (SN12C renal): > 100 µM | TGI (SNB-19 CNS): > 100 µM | TGI (SNB-75 CNS): > 100 µM | TGI (SW-620 colon): > 100 µM | TGI (T-47D breast): > 100 µM | TGI (TK-10 renal): > 100 µM | TGI (U251 CNS): > 100 µM | TGI (UACC-257 melanoma): > 100 µM | TGI (UACC-62 melanoma): > 100 µM | TGI (UO-31 renal): > 100 µM

— PubChem BioAssay (NCI)
